According to patent US10927221B2, “Dendrimeric metallacrowns” (THE REGENTS OF THE UNIVERSITY OF MICHIGAN, priority 2018, dated 2021):

Assays:
Luminescence lifetimes = assay type: physicochemical
Source text: (§1) Quantitative parameters, i.e. absolute quantum yields under excitation at 320 nm to 340 nm and luminescence lifetimes, have been determined for the Ga8Yb2(Shi)8(MIP)4 metallacrown and Ga8Ln2 G:−0.5 polyamidoamine MC-cored dendrimers (Ln=Yb, Tb, Sm) (Table 1).
(§2) In Table 1, luminescence lifetimes (λex=355 nm) and quantum yields (λex=340 nm for samples in the solid state and λex=320 for solutions) of the Ga8Yb2(Shi)8(MIP)4 dimeric metallacrown, Ga8Ln2 G:−0.5 polyamidoamine MC-cored dendrimers (Ln=Yb, Tb, Sm) (i.e., Ga8Ln2(Shi)8(MIP)4(G:−0.5 PAMAM)4) and Ga8Yb2 G:0.5 polyamidoamine MC-cored dendrimers at room temperature (2σ values are given between parentheses) are presented. For bi-exponetial luminescence lifetimes results, values after the colon indicate the fraction contribution of the individual lifetimes to the experimental luminescence decay.
(§3) Quantitative parameters, i.e. absolute quantum yields under excitation at 350 nm (for samples in the solid state) or 325 nm (for samples in solution) and luminescence lifetimes (under excitation at 355 nm), have been determined for each of the Ga8Y2(shi)8(mip)4 G:0 polyamidoamine MC-cored dendrimer, the Ga8Y2(shi)8(mip)4 G:0 AA-capped polyamidoamine MC-cored dendrimer, and the Ga8Y2(shi)8(mip)4 G:0.5 polyamidoamine MC-cored dendrimer at room temperature. In Table 2, the 2σ values are given between parentheses. For bi-exponetial luminescence lifetimes results, values after the colon indicate the fraction contribution of the individual lifetimes to the experimental luminescence decay.

Absolute quantum yields [1] = assay type: physicochemical
Source text: as §1, §2, §3

[2] = Solution state (UV-Vis) absorbance; assay type: physicochemical; details: approximately 2 μM to 3 μM methanol solutions; room temperature
Experimental: The solution state (UV-Vis) absorbance of the Sm-shi8 and the Sm-e8, Sm-m4, Smbt8 and Sm-te4 analogs was measured in approximately 2 μM to 3 μM methanol solutions at room temperature. The absorbance spectrum for each analog shown in FIG. 29 has a π-π* transition band with λmax of approximately 315 nm (31,750 cm^−1) or 335 nm (29,850 cm^−1). This π-π* transition was red-shifted by close to 25 nm from Sm-shi8 in the case of Sm-e8 and Sm-bt8.

HeLa cells = assay: Epifluorescence imaging with HeLa cells; assay type: cell-based; details: 3 hours, λex 377 nm band pass 50 nm
Experimental: FIG. 21 depicts epifluorescence microscopy images (reproduced in black and white) obtained on HeLa cells, (Top) after incubation with a 30 μM solution of Ga8Tb2(shi)8(MIP)4 G:−0.5 polyamidoamine MC-cored dendrimer for 3 hours (λex: 377 nm, band pass 50 nm; λem: 536 nm, band pass 40 nm, 1 s of exposure) and (Bottom) untreated (control) cells. A: brightfield, B: visible emission, and C: merged image (Objective 63×);
FIG. 22 depicts epifluorescence microscopy images (reproduced in black and white) obtained on HeLa cells, (Top) after incubation with a 100 μM solution of the Ga8Yb2(shi)8(MIP)4 G:−0.5 polyamidoamine MC-cored dendrimer for 3 hours (λex: 377 nm, band pass 50 nm; λem: long pass 805 nm, 40 s of exposure), and (Bottom) untreated (control) cells. A: brightfield, B: visible emission, and C: merged image (Objective 63×);
To test if synthesized MC-cored dendrimers could be used under biological conditions and maintain the luminescence signal, HeLa cells were incubated with the Tb(III) and Yb(III) G:−0.5 polyamidoamine MC-cored dendrimers (Ga8Tb2 G:−0.5 polyamidoamine MC-cored dendrimers and Ga8Yb2 G:−0.5 polyamidoamine MC-cored dendrimers). The metallacrown complexes coated the surfaces of the cells. For a control, HeLa cells were not incubated and were imaged in a similar manner. […]

Absolute quantum yields [3] = assay type: physicochemical; details: aqueous solution
[4] = 200 μM H2O/DMSO (4%), λex=355 nm, room temperature (Table 1)
[5] = Solid, λex=355 nm, room temperature, 2σ in parentheses (Table 1)
[6] = 200 μM H2O/DMSO (4%), λex=320 nm, room temperature (Table 1)
[7] = Solid, λex=340 nm, room temperature (Table 1)
[8] = H2O/DMSO (96/4), 1 mg/mL, excitation at 355 nm, room temperature (Table 2)
[9] = Solid, excitation at 355 nm, room temperature (Table 2)
[10] = H2O/DMSO (96/4), 1 mg/mL, excitation at 325 nm, room temperature (Table 2)
[11] = Solid, excitation at 350 nm, room temperature (Table 2)
[12] = 200 μM H2O/DMSO (4%), λex=355 nm, room temperature (Table 1), longer lifetime component
[13] = 200 μM H2O/DMSO (4%), λex=355 nm, room temperature (Table 1), shorter lifetime component

In the case of “Ga8Sm2(shi)8(MIP)4G:−0.5 PAMAM metallacrown (MC)-cored dendrimer [Ga8Sm2 Gen: −0.5]”, the Lifetime (Luminescence lifetimes; [4]) is reported as 96.2(9) μs, the Lifetime (Luminescence lifetimes; [5]) is reported as 112(1) μs and the Quantum yield (Absolute quantum yields [1]; [6]) is reported as 1.1(1) %. For the same substance, the Quantum yield (Absolute quantum yields [1]; [7]) was 2.31(2) %.

With “Ga8Yb2(shi)8(MIP)4 G:0 polyamidoamine MC-cored dendrimer [Ga8Yb2 G:0]” the Lifetime (Luminescence lifetimes; [8]) was 9.93(8) μs, the Lifetime (Luminescence lifetimes; [9]) was 36.3(1) μs and the Quantum yield (Absolute quantum yields [1]; [10]) was 0.53(1) %. The Quantum yield (Absolute quantum yields [1]; [11]) was 2.40(2) %.

With Sm2Ga8(shi)8(miph)4 [Sm-m4] the “red-shift of π-π* transition band from Sm-shi8” value [2] was “no notable redshift”.

In the case of Sm2Ga8(eshi)8(ip)4 [Sm-e8], the “red-shift of π-π* transition band from Sm-shi8” value [2] is reported as roughly 25 nm.

In the case of Ga8Yb2(Shi)8(MIP)4, the “fraction contribution of the individual lifetime to the experimental luminescence decay” value (from here on “fraction contribution”) (Luminescence lifetimes; [12]) is reported as 97.5(3) %, the “fraction contribution” value (Luminescence lifetimes; [13]) is reported as 2.5(3) % and the Quantum yield (Absolute quantum yields [1]; [6]) is reported as 9.01(7) · 10^−2%. For the same substance, the Quantum yield (Absolute quantum yields [1]; [7]) was 0.126(3) %.

With “Ga8Tb2(shi)8(MIP)4 G:−0.5 polyamidoamine MC-cored dendrimer [Ga8Tb2 Gen: −0.5]” the “fraction contribution” value (Luminescence lifetimes; [12]) was 89.7(8) %, the “fraction contribution” value (Luminescence lifetimes; [13]) was 10.3(8) % and the Quantum yield (Absolute quantum yields [1]; [6]) was 6.1(3) %. The Quantum yield (Absolute quantum yields [1]; [7]) was 11.9(3) % and the “luminescence signal on epifluorescence microscope, visible range” value (HeLa cells; 30 μM, 536 nm emission, 40 nm filter, 1 s exposure) was “good quality signals were observed in the visible range”.

In the case of “Ga8Yb2(shi)8(MIP)4 G:−0.5 polyamidoamine MC-cored dendrimer [Ga8Yb2 Gen: −0.5]”, the Lifetime (Luminescence lifetimes; [4]) is reported as 13.(1) μs, the Lifetime (Luminescence lifetimes; [5]) is reported as 35.3(6) μs and the Quantum yield (Absolute quantum yields [1]; [6]) is reported as 0.868(9) %. For the same substance, the Quantum yield (Absolute quantum yields [1]; 200 μM H2O/DMSO (4%), λex=320 nm, room temperature (Table 1), listed as Ga8Yb2 G:−0.5 polyamidoamine MC-cored dendrimer) was 0.868%, the Quantum yield (Absolute quantum yields [1]; [7]) was 3.24(9) % and the “improvement of quantum yield compared to YnZn16 MCs assembled with pyrazinehydroxamic acid” value (Absolute quantum yields [3]) was greater than 77 times. For the same substance, the “luminescence signal on epifluorescence microscope, NIR range” value (HeLa cells; 100 μM, >805 nm emission, 40 s exposure) was “good quality signals were observed in the NIR range”.

In the case of “Ga8Yb2(shi)8(MIP)4 G:0.5 polyamidoamine MC-cored dendrimer [Ga8Yb2 Gen: 0.5]”, the Lifetime (Luminescence lifetimes; [8]) is reported as 11.1(1) μs, the Lifetime (Luminescence lifetimes; [9]) is reported as 46.3(1) μs and the Lifetime (Luminescence lifetimes; [5]) is reported as 28.2(3) μs. The Quantum yield (Absolute quantum yields [1]; [10]) was 0.63(1) %, the Quantum yield (Absolute quantum yields [1]; [11]) was 2.83(9) % and the Quantum yield (Absolute quantum yields [1]; [7]) was 1.82(1) %.
